{"source": "patent US20200214330A1", "about": "“RICE PROTEIN HYDROLYSATES WITH ANTI-INFLAMMATORY PROPERTIES” (ABBOTT LABORATORIES, priority 2017, published 2020)", "format_in_all_cases": "cell-based, murine", "key": {"[1]": {"test_system": "TNFα secretion from RAW 264.7 cells", "experiment": "LPS-induced TNFα secretion from RAW 264.7 macrophage cells", "conditions": "1 hour pretreatment at 0.5 μg/mL, FIG. 11", "protocol": "(§1) FIG. 11 illustrates in vitro early (6 hours after LPS stimulation) and late (24 hours after LPS stimulation) phase inhibition of TNFα secretion from macrophage cells (RAW264.7) pre-incubated with different levels of curcumin for 1 hour and then treated with LPS; Specific studies have determined effects of the hydrolysates on TNFα secretion, 4-1BBL expression, and NF-κB Expression in murine macrophages (RAW 264.7 cells) treated with LPS (see FIGS. 1-13). RPH-1 inhibits early and late phase TNFα secretion from cells in culture."}, "[2]": {"test_system": "4-1BBL expression in RAW 264.7 cells", "experiment": "LPS-induced 4-1BBL expression in RAW 264.7 macrophage cells", "conditions": "1 hour pretreatment at 0.5 μg/mL, FIG. 12", "protocol": "as §1, with “FIG. 5 illustrates in vitro early (6 hours after LPS stimulation) and late phase (24 hours after LPS stimulation) inhibition of 4-1BBL expression in macrophage cells (RAW264.7) pre-incubated for 1 hour with RPH-land then treated with LPS; […] FIG. 12” for “FIG. 11”, “of 4-1BBL expression in” for “of TNFα secretion from”, “pre-incubated for 1 hour” for “pre-incubated”, “curcumin” for “curcumin for 1 hour”"}, "[3]": {"test_system": "NF-κB activation in RAW 264.7 cells", "experiment": "LPS-induced NF-κB activation in RAW 264.7 macrophage cells", "conditions": "2.5 μg/mL pretreatment for 2 hours; 30 min after LPS stimulation; FIG. 13", "protocol": "FIG. 6 illustrates in vitro NF-κB activation (30 min after LPS stimulation) in macrophage cells (RAW264.7) preincubated for 2 hours with RPH-1 and then treated with LPS; FIG. 13 illustrates in vitro inhibition of nuclear factor kappa-light-chain-enhancer of activated B cells (NF-κB) activation in macrophage cells (RAW264.7) pre-incubated with curcumin for 2 hours and treated with LPS for 30 minutes; Specific studies have determined effects of the hydrolysates on TNFα secretion, 4-1BBL expression, and NF-κB Expression in murine macrophages (RAW 264.7 cells) treated with LPS (see FIGS. 1-13). Pretreatment with curcumin at 0.5 μg/mL and […] for 1 hour led to an inhibition of TNFα secretion (FIG. 11) and 4-IBBL expression (FIG. 12) at 6 hours and 24 hours following LPS treatment."}}}
{"compound": "COc1cc(C=CC(=O)CC(=O)C=Cc2ccc(O)c(OC)c2)ccc1O", "note": "[curcumin, 1,7-Bis-(4-hydroxy-3-methoxyphenyl)-hepta-1,6-diene-3,5-dione]", "values": [{"measurement": "TNFα secretion, early phase", "setting": "[1]; 6 hours after LPS", "value": "inhibition"}, {"measurement": "TNFα secretion, late phase", "setting": "[1]; 24 hours after LPS", "value": "inhibition"}, {"measurement": "4-1BBL expression, early phase", "setting": "[2]; 6 hours after LPS", "value": "inhibition"}, {"measurement": "4-1BBL expression, late phase", "setting": "[2]; 24 hours after LPS", "value": "inhibition"}, {"measurement": "LPS-induced NF-κB expression", "setting": "[3]", "value": "decreased"}]}
